Data taken from patent US20140031278A1, “Novel Glucagon Analogues” (NOVO NORDISK A/S, priority 2011, published 2014).
*1 amine or outer side, *2 acyl side, *3 side chain or, on linkers, in order; H or OH if unused. Where a SMILES comes first, the peptide text is derived from it. Side-chain parts run from the residue outwards. γGlu = O=C(O)[C@H](CCC(=O)[*:2])N[*:1]

The compounds below were run against T1, glucagon receptor (Homo sapiens, UniProt P47871) (assay: Assay (I) Glucagon activity (cAMP biosensor, FLIPR)). Settings: HEK-293 cells with cloned glucagon receptor and cAMP biosensor; end point after 6 minutes.
T1 construct: expressed in transfected cells
T1 sequence (P47871 26-477): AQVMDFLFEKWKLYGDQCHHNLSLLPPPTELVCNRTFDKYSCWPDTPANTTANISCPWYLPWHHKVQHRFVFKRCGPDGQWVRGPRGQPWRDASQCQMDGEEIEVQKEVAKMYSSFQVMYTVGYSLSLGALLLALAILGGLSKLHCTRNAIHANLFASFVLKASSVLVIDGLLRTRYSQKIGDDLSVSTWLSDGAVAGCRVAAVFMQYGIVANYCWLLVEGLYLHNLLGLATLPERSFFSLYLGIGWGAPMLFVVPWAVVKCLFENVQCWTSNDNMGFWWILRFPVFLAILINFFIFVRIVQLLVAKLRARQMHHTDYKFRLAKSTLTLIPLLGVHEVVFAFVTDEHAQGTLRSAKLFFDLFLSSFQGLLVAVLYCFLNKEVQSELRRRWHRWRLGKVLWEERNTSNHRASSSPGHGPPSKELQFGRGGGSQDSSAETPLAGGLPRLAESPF
Format: cell-based
How it was run: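 HEK-293 cells expressing glucagon receptor with membrane cAMP biosensor (ACTOne), calcium-dye loaded with probenecid and a PDE inhibitor.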
Compound `CC(=O)N[C@@H](CCC(=O)N[C@@H](CCC(=O)N[C@@H](CCC(=O)N[C@@H](CCC(=O)NCCCC[C@H](NC(=O)[C@H](C)NC(=O)[C@H](CCCNC(=N)N)NC(=O)[C@H](CCCNC(=N)N)NC(=O)[C@H](CO)NC(=O)[C@H](CC(=O)O)NC(=O)[C@H](CC(C)C)NC(=O)[C@H](Cc1ccc(O)cc1)NC(=O)[C@H](CCCCN)NC(=O)[C@H](CO)NC(=O)[C@H](Cc1ccc(O)cc1)NC(=O)[C@H](CC(=O)O)NC(=O)[C@H](CO)NC(=O)[C@@H](NC(=O)[C@H](Cc1ccccc1)NC(=O)[C@@H](NC(=O)CNC(=O)[C@H](CCC(N)=O)NC(=O)[C@H](CO)NC(=O)[C@@H](N)Cc1c[nH]cn1)[C@@H](C)O)[C@@H](C)O)C(=O)N[C@@H](CC(=O)O)C(=O)N[C@@H](Cc1ccccc1)C(=O)N[C@H](C(=O)N[C@@H](CCC(N)=O)C(=O)N[C@@H](Cc1c[nH]c2ccccc12)C(=O)N[C@@H](CC(C)C)C(=O)N[C@@H](CC(C)C)C(=O)N[C@@H](CO)C(=O)N[C@H](C(=O)O)[C@@H](C)O)C(C)C)C(=O)O)C(=O)O)C(=O)O)C(=O)O` [Example 54, N^ε20-[(4S)-4-[[(4S)-4-[[(4S)-4-[[(4S)-4-acetamido-4-carboxybutanoyl]amino]-4-carboxybutanoyl]amino]-4-carboxybutanoyl]amino]-4-carboxybutanoyl]-[Lys^20,Leu^27,Ser^28]-Glucagon] has an EC50 of 0.018 nM.
`CC(=O)N[C@@H](CCC(=O)N[C@@H](CCC(=O)N[C@@H](CCC(=O)N[C@@H](CCC(=O)NCCCC[C@H](NC(=O)[C@@H](NC(=O)[C@H](Cc1ccccc1)NC(=O)[C@H](CC(=O)O)NC(=O)[C@H](C)NC(=O)[C@H](C)NC(=O)[C@H](CCCNC(=N)N)NC(=O)[C@H](CCCNC(=N)N)NC(=O)[C@H](CO)NC(=O)[C@H](CC(=O)O)NC(=O)[C@H](CC(C)C)NC(=O)[C@H](Cc1ccc(O)cc1)NC(=O)[C@H](CCCCN)NC(=O)[C@H](CO)NC(=O)[C@H](Cc1ccc(O)cc1)NC(=O)[C@H](CC(=O)O)NC(=O)[C@H](CO)NC(=O)[C@@H](NC(=O)[C@H](Cc1ccccc1)NC(=O)[C@@H](NC(=O)CNC(=O)[C@H](Cc1c[nH]cn1)NC(=O)[C@H](CO)NC(=O)[C@@H](N)Cc1c[nH]cn1)[C@@H](C)O)[C@@H](C)O)C(C)C)C(=O)N[C@@H](Cc1c[nH]c2ccccc12)C(=O)N[C@@H](CC(C)C)C(=O)N[C@@H](CC(C)C)C(=O)N[C@@H](CO)C(=O)N[C@H](C(=O)O)[C@@H](C)O)C(=O)O)C(=O)O)C(=O)O)C(=O)O` [Example 4, N^ε24-[(4S)-4-[[(4S)-4-[[(4S)-4-[[(4S)-4-acetamido-4-carboxybutanoyl]amino]-4-carboxybutanoyl]amino]-4-carboxybutanoyl]amino]-4-carboxybutanoyl]-[His3,Ala20,Lys24,Leu27,Ser28]-Glucagon] (H-HSHGTFTSDYSKYLDSRRAADFVK([γGlu-γGlu-γGlu-γGlu-Ac])WLLST-OH) gave an EC50 of 0.0145 nM.
Compound `CC(=O)N[C@@H](CCC(=O)N[C@@H](CCC(=O)N[C@@H](CCC(=O)N[C@@H](CCC(=O)NCCCC[C@H](NC(=O)[C@@H](NC(=O)[C@H](CO)NC(=O)[C@H](CC(C)C)NC(=O)[C@H](CC(C)C)NC(=O)[C@H](Cc1c[nH]c2ccccc12)NC(=O)[C@H](CCC(N)=O)NC(=O)[C@@H](NC(=O)[C@H](Cc1ccccc1)NC(=O)[C@H](CC(=O)O)NC(=O)[C@H](CCC(N)=O)NC(=O)[C@H](C)NC(=O)[C@H](CCCNC(=N)N)NC(=O)[C@H](CCCNC(=N)N)NC(=O)[C@H](CO)NC(=O)[C@H](CC(=O)O)NC(=O)[C@H](CC(C)C)NC(=O)[C@H](Cc1ccc(O)cc1)NC(=O)[C@H](CCCCN)NC(=O)[C@H](CO)NC(=O)[C@H](Cc1ccc(O)cc1)NC(=O)[C@H](CC(=O)O)NC(=O)[C@H](CO)NC(=O)[C@@H](NC(=O)[C@H](Cc1ccccc1)NC(=O)[C@@H](NC(=O)CNC(=O)[C@H](CCC(N)=O)NC(=O)[C@H](CO)NC(=O)[C@@H](N)Cc1c[nH]cn1)[C@@H](C)O)[C@@H](C)O)C(C)C)[C@@H](C)O)C(=O)O)C(=O)O)C(=O)O)C(=O)O)C(=O)O` [Example 51, N^α([Leu^27,Ser^28]-Glucagonyl)-N^ε[(4S)-4-[[(4S)-4-[[(4S)-4-[[(4S)-4-acetamido-4-carboxybutanoyl]amino]-4-carboxybutanoyl]amino]-4-carboxybutanoyl]amino]-4-carboxybutanoyl]Lys] has an EC50 of 0.007 nM.
In the case of `CC(C)C[C@H](NC(=O)[C@H](Cc1c[nH]c2ccccc12)NC(=O)[C@H](CCCCNC(=O)CC[C@H](NC(=O)CC[C@H](NC(=O)CC[C@H](NC(=O)CC[C@H](N)C(=O)O)C(=O)O)C(=O)O)C(=O)O)NC(=O)[C@@H](NC(=O)[C@H](Cc1ccccc1)NC(=O)[C@H](CC(=O)O)NC(=O)[C@H](C)NC(=O)[C@H](C)NC(=O)[C@H](CCCNC(=N)N)NC(=O)[C@H](CCCNC(=N)N)NC(=O)[C@@H](NC(=O)[C@H](CC(=O)O)NC(=O)[C@H](CC(C)C)NC(=O)[C@H](Cc1ccc(O)cc1)NC(=O)[C@H](CCCNC(=N)N)NC(=O)[C@H](CO)NC(=O)[C@H](Cc1ccc(O)cc1)NC(=O)[C@H](CC(=O)O)NC(=O)[C@H](CO)NC(=O)[C@@H](NC(=O)[C@H](Cc1ccccc1)NC(=O)[C@@H](NC(=O)CNC(=O)[C@H](Cc1c[nH]cn1)NC(=O)[C@H](CO)NC(=O)[C@@H](N)Cc1c[nH]cn1)[C@@H](C)O)[C@@H](C)O)[C@@H](C)O)C(C)C)C(=O)N[C@@H](CC(C)C)C(=O)N[C@@H](CO)C(=O)N[C@H](C(=O)O)[C@@H](C)O` [Example 9, N^ε24-[(4S)-4-[[(4S)-4-[[(4S)-4-[[(4S)-4-amino-4-carboxybutanoyl]amino]-4-carboxybutanoyl]amino]-4-carboxybutanoyl]amino]-4-carboxybutanoyl]-[His3,Arg12,Thr16,Ala20,Lys24,Leu27,Ser28]-Glucagon] (H-HSHGTFTSDYSRYLDTRRAADFVK([γGlu-γGlu-γGlu-γGlu])WLLST-OH), the EC50 is reported as 0.037 nM.
With `CC(C)C[C@H](NC(=O)[C@H](Cc1c[nH]c2ccccc12)NC(=O)[C@H](CCCCNC(=O)CC[C@H](NC(=O)CC[C@H](NC(=O)CC[C@H](NC(=O)CC[C@H](N)C(=O)O)C(=O)O)C(=O)O)C(=O)O)NC(=O)[C@@H](NC(=O)[C@H](Cc1ccccc1)NC(=O)[C@H](CC(=O)O)NC(=O)[C@H](CCC(N)=O)NC(=O)[C@H](C)NC(=O)[C@H](CCCNC(=N)N)NC(=O)[C@H](CCCNC(=N)N)NC(=O)[C@@H](NC(=O)[C@H](CC(=O)O)NC(=O)[C@H](CC(C)C)NC(=O)[C@H](Cc1ccc(O)cc1)NC(=O)[C@H](CCCCN)NC(=O)[C@H](CO)NC(=O)[C@H](Cc1ccc(O)cc1)NC(=O)[C@H](CC(=O)O)NC(=O)[C@H](CO)NC(=O)[C@@H](NC(=O)[C@H](Cc1ccccc1)NC(=O)[C@@H](NC(=O)CNC(=O)[C@H](Cc1c[nH]cn1)NC(=O)[C@H](CO)NC(=O)[C@@H](N)Cc1c[nH]cn1)[C@@H](C)O)[C@@H](C)O)[C@@H](C)O)C(C)C)C(=O)N[C@@H](CC(C)C)C(=O)N[C@@H](CO)C(=O)N[C@H](C(=O)O)[C@@H](C)O` [Example 33, N^ε24-[(4S)-4-[[(4S)-4-[[(4S)-4-[[(4S)-4-amino-4-carboxybutanoyl]amino]-4-carboxybutanoyl]amino]-4-carboxybutanoyl]amino]-4-carboxybutanoyl]-[His3,Thr16,Lys24,Leu27,Ser28]-Glucagon] (H-HSHGTFTSDYSKYLDTRRAQDFVK([γGlu-γGlu-γGlu-γGlu])WLLST-OH) the EC50 was 0.008 nM.
For `CC(=O)N[C@@H](CCC(=O)N[C@@H](CCC(=O)N[C@@H](CCC(=O)N[C@@H](CCC(=O)NCCCC[C@H](NC(=O)[C@@H](NC(=O)[C@H](Cc1ccccc1)NC(=O)[C@H](CC(=O)O)NC(=O)[C@H](CCC(N)=O)NC(=O)[C@H](C)NC(=O)[C@H](CCCNC(=N)N)NC(=O)[C@H](CCCNC(=N)N)NC(=O)[C@H](CO)NC(=O)[C@H](CC(=O)O)NC(=O)[C@H](CC(C)C)NC(=O)[C@H](Cc1ccc(O)cc1)NC(=O)[C@H](CCCCN)NC(=O)[C@H](CO)NC(=O)[C@H](Cc1ccc(O)cc1)NC(=O)[C@H](CC(=O)O)NC(=O)[C@H](CO)NC(=O)[C@@H](NC(=O)[C@H](Cc1ccccc1)NC(=O)[C@@H](NC(=O)CNC(=O)[C@H](Cc1c[nH]cn1)NC(=O)[C@H](CO)NC(=O)[C@@H](N)Cc1c[nH]cn1)[C@@H](C)O)[C@@H](C)O)C(C)C)C(=O)N[C@@H](Cc1c[nH]c2ccccc12)C(=O)N[C@@H](CC(C)C)C(=O)N[C@@H](CC(C)C)C(=O)N[C@@H](CC(N)=O)C(=O)N[C@H](C(=O)O)[C@@H](C)O)C(=O)O)C(=O)O)C(=O)O)C(=O)O` [Example 19, N^ε24-[(4S)-4-[[(4S)-4-[[(4S)-4-[[(4S)-4-acetamido-4-carboxybutanoyl]amino]-4-carboxybutanoyl]amino]-4-carboxybutanoyl]amino]-4-carboxybutanoyl]-[His3,Lys24,Leu27]-Glucagon], the EC50 was 0.0145 nM.
Compound `CC(=O)N[C@@H](CCC(=O)N[C@@H](CCC(=O)N[C@@H](CCC(=O)N[C@@H](CCC(=O)NCCCC[C@H](NC(=O)[C@@H](NC(=O)[C@H](Cc1ccccc1)NC(=O)[C@H](CC(=O)O)NC(=O)[C@H](CCC(N)=O)NC(=O)[C@H](C)NC(=O)[C@H](CCCNC(=N)N)NC(=O)[C@H](CCCNC(=N)N)NC(=O)[C@@H](NC(=O)[C@H](CCC(=O)O)NC(=O)[C@H](CC(C)C)NC(=O)[C@H](Cc1ccc(O)cc1)NC(=O)[C@H](CCCCN)NC(=O)[C@H](CO)NC(=O)[C@H](Cc1ccc(O)cc1)NC(=O)[C@H](CC(=O)O)NC(=O)[C@H](CO)NC(=O)[C@@H](NC(=O)[C@H](Cc1ccccc1)NC(=O)[C@@H](NC(=O)CNC(=O)[C@H](Cc1c[nH]cn1)NC(=O)[C@H](CO)NC(=O)[C@@H](N)Cc1c[nH]cn1)[C@@H](C)O)[C@@H](C)O)[C@@H](C)O)C(C)C)C(=O)N[C@@H](Cc1c[nH]c2ccccc12)C(=O)N[C@@H](CC(C)C)C(=O)N[C@@H](CC(C)C)C(=O)N[C@@H](CO)C(=O)N[C@H](C(=O)O)[C@@H](C)O)C(=O)O)C(=O)O)C(=O)O)C(=O)O` [Example 31, N^ε24-[(4S)-4-[[(4S)-4-[[(4S)-4-[[(4S)-4-acetamido-4-carboxybutanoyl]amino]-4-carboxybutanoyl]amino]-4-carboxybutanoyl]amino]-4-carboxybutanoyl]-[His3,Glu15,Thr16,Lys24,Leu27,Ser28]-Glucagon] (H-HSHGTFTSDYSKYLETRRAQDFVK([γGlu-γGlu-γGlu-γGlu-Ac])WLLST-OH) has an EC50 of 0.013 nM.
